Data taken from patent US20250084056A1, “SUBSTITUTED OXOISOINDOLINYL PIPERIDINE-2,6-DIONE COMPOUNDS” (BRISTOL-MYERS SQUIBB COMPANY, priority 2023, published 2025).

How the values were obtained:
Type in all cases: cell-based
[1] = biological target: GSPT1 (Homo sapiens, UniProt P15170+Q96SW2); assay: GSPT1 Cellular Degradation Assay (DF15-GSPT1-ePL); parameters: expressed in transfected cells; settings: DF15-GSPT1-ePL cells, 20 hours
Summary of the method: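 DC50 and Dmax were derived from chemiluminescence, with 75% response set by the reference compound at […]. Readout was ePL enzyme-fragment complementation in a DF15 line expressing chimeric GSPT1. Cells were exposed to compound for 20 h at 37 °C in RPMI 1640 with 10% FBS, cooled 30 min, then lysed with substrate for 60 min.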

[2] = test system: Phospho-Rb (Ser807/811); assay: Phospho-Retinoblastoma (pRB) Cellular Assay; settings: NIH OVCAR3 cells, 24 hours; for IC50: concentration giving 50% response; for Emax: read-out: pRB Ymax
Summary of the method: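 Phospho-Rb (Ser807/811) kit read-out on EnVision after lysis (≥4 h, room temperature, dark) of OVCAR3 cells exposed to compound dilutions for 24 h. IC50 and maximum response Ymax are relative to a 10 μM reference compound defining 100%.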

[3] = biological target: Cyclin E1 (Homo sapiens, UniProt P24864+Q96SW2); assay: Cyclin E1 Cellular Degradation Assay (MSD); parameters: endogenous in cells; host or cells: OVCAR3; settings: for Ratio of GSPT1 DC50/Cyclin E1 DC50: selectivity for degradation of Cyclin E1 over GSPT1
Cyclin E1, sequence (P24864 whole entry): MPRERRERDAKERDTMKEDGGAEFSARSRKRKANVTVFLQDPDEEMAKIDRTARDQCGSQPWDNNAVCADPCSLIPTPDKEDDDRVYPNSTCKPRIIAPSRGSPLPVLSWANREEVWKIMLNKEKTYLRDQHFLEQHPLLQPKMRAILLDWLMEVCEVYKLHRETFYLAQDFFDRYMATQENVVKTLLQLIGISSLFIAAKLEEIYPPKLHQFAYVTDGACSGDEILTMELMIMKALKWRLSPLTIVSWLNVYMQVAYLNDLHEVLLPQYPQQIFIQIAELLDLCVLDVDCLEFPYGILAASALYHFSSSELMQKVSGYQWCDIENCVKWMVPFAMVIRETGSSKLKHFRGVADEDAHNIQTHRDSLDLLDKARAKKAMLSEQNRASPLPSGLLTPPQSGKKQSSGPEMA
Cyclin E1, sequence (Q96SW2 whole entry): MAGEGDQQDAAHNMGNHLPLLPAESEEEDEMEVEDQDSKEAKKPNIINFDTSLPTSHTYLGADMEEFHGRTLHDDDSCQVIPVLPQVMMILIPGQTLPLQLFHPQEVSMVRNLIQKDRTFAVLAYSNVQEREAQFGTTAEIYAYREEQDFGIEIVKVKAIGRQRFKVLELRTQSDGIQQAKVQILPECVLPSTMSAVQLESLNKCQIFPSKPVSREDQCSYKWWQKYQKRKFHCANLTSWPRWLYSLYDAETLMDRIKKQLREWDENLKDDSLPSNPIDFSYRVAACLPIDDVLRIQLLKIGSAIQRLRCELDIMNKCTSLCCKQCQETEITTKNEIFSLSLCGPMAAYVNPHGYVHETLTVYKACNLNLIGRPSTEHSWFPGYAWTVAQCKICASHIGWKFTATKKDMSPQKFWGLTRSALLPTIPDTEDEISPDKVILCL
Cyclin E1, sequence (Q16531 whole entry partner): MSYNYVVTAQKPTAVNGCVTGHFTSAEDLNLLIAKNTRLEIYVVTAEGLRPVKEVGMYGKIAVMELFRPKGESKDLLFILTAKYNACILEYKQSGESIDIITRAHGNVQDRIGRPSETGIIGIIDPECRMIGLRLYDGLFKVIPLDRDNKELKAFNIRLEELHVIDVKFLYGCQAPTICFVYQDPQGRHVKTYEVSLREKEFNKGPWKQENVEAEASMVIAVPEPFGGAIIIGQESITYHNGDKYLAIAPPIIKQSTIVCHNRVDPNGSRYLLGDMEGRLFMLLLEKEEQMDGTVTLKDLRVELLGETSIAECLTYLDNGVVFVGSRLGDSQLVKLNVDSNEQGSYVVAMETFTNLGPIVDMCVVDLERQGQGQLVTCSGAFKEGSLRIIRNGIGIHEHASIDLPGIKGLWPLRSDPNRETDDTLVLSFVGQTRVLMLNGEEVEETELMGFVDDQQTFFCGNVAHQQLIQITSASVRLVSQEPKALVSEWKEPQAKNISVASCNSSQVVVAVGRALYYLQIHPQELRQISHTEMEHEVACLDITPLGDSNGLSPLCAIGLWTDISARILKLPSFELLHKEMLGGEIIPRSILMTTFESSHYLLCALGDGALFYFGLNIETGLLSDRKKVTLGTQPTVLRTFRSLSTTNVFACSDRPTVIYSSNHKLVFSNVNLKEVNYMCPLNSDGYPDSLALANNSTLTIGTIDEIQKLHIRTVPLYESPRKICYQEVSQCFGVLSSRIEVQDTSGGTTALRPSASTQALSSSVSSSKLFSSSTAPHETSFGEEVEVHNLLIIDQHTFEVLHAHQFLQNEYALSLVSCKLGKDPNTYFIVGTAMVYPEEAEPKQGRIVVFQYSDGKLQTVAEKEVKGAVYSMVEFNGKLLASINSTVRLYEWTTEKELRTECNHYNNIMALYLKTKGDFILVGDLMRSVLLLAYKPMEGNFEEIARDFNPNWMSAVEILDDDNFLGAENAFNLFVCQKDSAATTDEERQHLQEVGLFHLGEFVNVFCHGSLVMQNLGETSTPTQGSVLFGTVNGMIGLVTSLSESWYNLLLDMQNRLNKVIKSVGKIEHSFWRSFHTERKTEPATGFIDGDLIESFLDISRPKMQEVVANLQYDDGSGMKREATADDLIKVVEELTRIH
Summary of the method: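 Cyclin E1 remaining after 24 h compound exposure of OVCAR3 cells was quantified in lysates by electrochemiluminescent MSD sandwich assay. DC50 (50% response concentration) and Dmax (maximum response) were calculated, with 110% response set by a reference compound at […].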

[4] = Homo sapiens, OVCAR-3, maximum response, reference compound at 10 μM = 100%
[5] = Cyclin E1 cellular degradation, maximum degradation

GSPT1, sequence (P15170 whole entry, the tested form may be a part): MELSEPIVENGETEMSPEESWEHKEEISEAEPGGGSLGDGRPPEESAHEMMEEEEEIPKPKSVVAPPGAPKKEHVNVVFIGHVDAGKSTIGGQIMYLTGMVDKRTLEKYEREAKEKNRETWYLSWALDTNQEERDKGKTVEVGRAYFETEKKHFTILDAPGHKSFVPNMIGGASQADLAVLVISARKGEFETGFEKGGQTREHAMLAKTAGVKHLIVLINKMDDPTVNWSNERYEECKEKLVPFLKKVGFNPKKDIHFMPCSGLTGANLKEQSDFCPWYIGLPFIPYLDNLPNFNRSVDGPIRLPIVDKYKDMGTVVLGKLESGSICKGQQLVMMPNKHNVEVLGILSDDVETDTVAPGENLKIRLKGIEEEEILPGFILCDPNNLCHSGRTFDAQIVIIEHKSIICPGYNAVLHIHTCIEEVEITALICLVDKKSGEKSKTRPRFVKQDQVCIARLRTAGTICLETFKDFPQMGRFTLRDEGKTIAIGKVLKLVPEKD
GSPT1, sequence (Q96SW2 whole entry, the tested form may be a part): as the sequence (Q96SW2 whole entry) above
GSPT1, sequence (Q16531 whole entry partner, the tested form may be a part): as the sequence (Q16531 whole entry partner) above

SMILES | DC50 [1] [nM] | Dmax [1] [%] | IC50 ([2]; Homo sapiens, OVCAR-3) [nM] | DC50 ([3]; Cyclin E1 cellular degradation) [nM] | Dmax [3, 5] [%] | Ratio of GSPT1 DC50/Cyclin E1 DC50 [3] | IC50 [2] [nM] | GSPT1 Dmax [1] [%] | Cyclin E1 Dmax [3, 5] [%] | Emax [2, 4] [%] | pRB Ymax ([2]; maximum response, reference compound at 10 μM = 100%) [%]
O=C1CCC(N2Cc3ccc(COC(=O)Nc4ccc(Oc5ccccc5Cl)cc4)c(OC4CCC4)c3C2=O)C(=O)N1 (centres unmarked) [Example 127, [4-cyclobutoxy-2-(2,6-dioxopiperidin-3-yl)-3-oxo-2,3-dihydro-1H-isoindol-5-yl]methyl N-[4-(2-chlorophenoxy)phenyl]carbamate] | > 14000 | 8 | 48 | 126 | 105 | >111 |  |  |  | 121 | 
COc1c(COC(=O)Nc2ccc(C(C)(C)c3ccccc3)cc2)ccc2c1C(=O)N(C1CCC(=O)NC1=O)C2 (centres unmarked) [Example 41, [2-(2,6-dioxopiperidin-3-yl)-4-methoxy-3-oxo-2,3-dihydro-1H-isoindol-5-yl]methyl N-[4-(2-phenylpropan-2-yl)phenyl]carbamate] | > 14000 | 13 | 248 | 336 | 92 | >42 |  |  |  | 100 | 
COc1c(COC(=O)Nc2ccc(Oc3ccc(F)c(F)c3)cc2)ccc2c1C(=O)N([C@@H]1CCC(=O)NC1=O)C2 (single isomer, unassigned) [Example 36] | > 14000 | 28 | 339 | 257 | 108 | >54 |  |  |  | 98 | 
COc1cc(Oc2ccc(F)cc2)ccc1NC(=O)OCc1ccc2c(c1OC)C(=O)N(C1CCC(=O)NC1=O)C2 (centres unmarked) [Example 37, [2-(2,6-dioxopiperidin-3-yl)-4-methoxy-3-oxo-2,3-dihydro-1H-isoindol-5-yl]methyl N-[4-(4-fluorophenoxy)-2-methoxyphenyl]carbamate] | > 14000 | 28 | 289 | 107 | 102 | >131 |  |  |  | 111 | 
COc1c(COC(=O)Nc2ccc(Oc3cccc(C)c3)cc2)ccc2c1C(=O)N(C1CCC(=O)NC1=O)C2 (centres unmarked) [Example 11, [2-(2,6-dioxopiperidin-3-yl)-4-methoxy-3-oxo-2,3-dihydro-1H-isoindol-5-yl]methyl N-[4-(3-methylphenoxy)phenyl]carbamate] | > 14000 | 33 | 356 | 61 | 112 | >228 |  |  |  | 98 | 
COc1c(COC(=O)Nc2ccc(Oc3cc(F)cc(F)c3)cc2)ccc2c1C(=O)N(C1CCC(=O)NC1=O)C2 (centres unmarked) [Example 13, [2-(2,6-dioxopiperidin-3-yl)-4-methoxy-3-oxo-2,3-dihydro-1H-isoindol-5-yl]methyl N-[4-(3,5-difluorophenoxy)phenyl]carbamate] | > 14000 | 7 | 278 | 55 | 113 | >254 |  |  |  | 97 | 
COc1c(COC(=O)Nc2ccc(Oc3cccc(F)c3)cc2C)ccc2c1C(=O)N(C1CCC(=O)NC1=O)C2 (centres unmarked) [Example 39, [2-(2,6-dioxopiperidin-3-yl)-4-methoxy-3-oxo-2,3-dihydro-1H-isoindol-5-yl]methyl N-[4-(3-fluorophenoxy)-2-methylphenyl]carbamate] | > 14000 | 20 | 127 | 103 | 108 | >136 |  |  |  | 111 | 
O=C1CCC(N2Cc3ccc(COC(=O)Nc4ccc(Oc5ccc(F)cc5Cl)cc4)c(OC4CCC4)c3C2=O)C(=O)N1 (centres unmarked) [Example 128, [4-cyclobutoxy-2-(2,6-dioxopiperidin-3-yl)-3-oxo-2,3-dihydro-1H-isoindol-5-yl]methyl N-[4-(2-chloro-4-fluorophenoxy)phenyl]carbamate] | > 14000 | 10 | 136 | 101 | 106 | >139 |  |  |  | 124 | 
COc1cc(Oc2ccc(F)cc2OC)ccc1NC(=O)OCc1ccc2c(c1OC)C(=O)N(C1CCC(=O)NC1=O)C2 (centres unmarked) [Example 50, [2-(2,6-dioxopiperidin-3-yl)-4-methoxy-3-oxo-2,3-dihydro-1H-isoindol-5-yl]methyl N-[4-(4-fluoro-2-methoxyphenoxy)-2-methoxyphenyl]carbamate] | > 14000 | 25 | 2080 | 463 | 77 | >30 |  |  |  | 77 | 

Continued, in another order:

DC50 [1] [nM] | Dmax [1] [%] | IC50 ([2]; Homo sapiens, OVCAR-3) [nM] | DC50 ([3]; Cyclin E1 cellular degradation) [nM] | Dmax [3, 5] [%] | Ratio of GSPT1 DC50/Cyclin E1 DC50 [3] | IC50 [2] [nM] | GSPT1 Dmax [1] [%] | Cyclin E1 Dmax [3, 5] [%] | SMILES | Emax [2, 4] [%] | pRB Ymax ([2]; maximum response, reference compound at 10 μM = 100%) [%]
> 14000 | 27 | 234 | 241 | 105 | >58 |  |  |  | COc1c(COC(=O)Nc2ccc(Oc3ccc(Cl)c(F)c3)cc2)ccc2c1C(=O)N(C1CCC(=O)NC1=O)C2 (centres unmarked) [Example 71, [2-(2,6-dioxopiperidin-3-yl)-4-methoxy-3-oxo-2,3-dihydro-1H-isoindol-5-yl]methyl N-[4-(4-chloro-3-fluorophenoxy)phenyl]carbamate] | 97 | 
> 14000 | 0 | 52 | 15 | 109 | >930 |  |  |  | O=C1CCC(N2Cc3ccc(COC(=O)Nc4ccc(Oc5ccc(F)c(F)c5)cc4)c(OC4CCCOCC4)c3C2=O)C(=O)N1 (centres unmarked) [Example 170, [2-(2,6-dioxopiperidin-3-yl)-4-(oxepan-4-yloxy)-3-oxo-2,3-dihydro-1H-isoindol-5-yl]methyl N-[4-(3,4-difluorophenoxy)phenyl]carbamate] | 142 | 
> 14000 | 10 | 479 | 200 | 100 | >70 |  |  |  | COc1c(COC(=O)Nc2ccc(Oc3ccccc3C(F)(F)F)cc2Cl)ccc2c1C(=O)N(C1CCC(=O)NC1=O)C2 (centres unmarked) [Example 90, [2-(2,6-dioxopiperidin-3-yl)-4-methoxy-3-oxo-2,3-dihydro-1H-isoindol-5-yl]methyl N-{2-chloro-4-[2-(trifluoromethyl)phenoxy]phenyl}carbamate] | 103 | 
> 14000 |  |  | 170 |  |  | 34 |  |  | COc1c(COC(=O)Nc2ccc(Oc3ccccc3C)cc2)ccc2c1C(=O)N(C1CCC(=O)NC1=O)C2 (centres unmarked) [Example 92, [2-(2,6-dioxopiperidin-3-yl)-4-methoxy-3-oxo-2,3-dihydro-1H-isoindol-5-yl]methyl N-{4-[2-(^2H3)methylphenoxy]phenyl}carbamate] |  | 
 |  |  |  |  | >82 |  | 23 | 114 | [2H]C([2H])([2H])c1ccccc1Oc1ccc(NC(=O)OCc2ccc3c(c2OC)C(=O)N(C2CCC(=O)NC2=O)C3)cc1 (centres unmarked) [Example 92, [2-(2,6-dioxopiperidin-3-yl)-4-methoxy-3-oxo-2,3-dihydro-1H-isoindol-5-yl]methyl N-{4-[2-(^2H3)methylphenoxy]phenyl}carbamate] |  | 112
> 14000 | 37 | 86 | 176 | 109 | >80 |  |  |  | CCOc1c(COC(=O)Nc2ccc(Oc3ccc(F)c(F)c3)cc2)ccc2c1C(=O)N(C1CCC(=O)NC1=O)C2 (centres unmarked) [Example 53, [2-(2,6-dioxopiperidin-3-yl)-4-ethoxy-3-oxo-2,3-dihydro-1H-isoindol-5-yl]methyl N-[4-(3,4-difluorophenoxy)phenyl]carbamate] | 99 | 
> 14000 | 48 | 298 | 139 | 104 | >100 |  |  |  | CC(C)Oc1c(COC(=O)Nc2ccc(Oc3cccc(Cl)c3)cc2)ccc2c1C(=O)N(C1CCC(=O)NC1=O)C2 (centres unmarked) [Example 58, [2-(2,6-dioxopiperidin-3-yl)-3-oxo-4-(propan-2-yloxy)-2,3-dihydro-1H-isoindol-5-yl]methyl N-[4-(3-chlorophenoxy)phenyl]carbamate] | 109 | 
> 14000 | 6 | 55 | 148 | 108 | >95 |  |  |  | CC(C)Oc1c(COC(=O)Nc2ccc(Oc3cccc(F)c3F)cc2)ccc2c1C(=O)N(C1CCC(=O)NC1=O)C2 (centres unmarked) [Example 120, [2-(2,6-dioxopiperidin-3-yl)-3-oxo-4-(propan-2-yloxy)-2,3-dihydro-1H-isoindol-5-yl]methyl N-[4-(2,3-difluorophenoxy)phenyl]carbamate] | 121 | 
> 14000 | 24 | 326 | 357 | 106 | >39 |  |  |  | COc1cc(Oc2ccc(F)c(C)c2)ccc1NC(=O)OCc1ccc2c(c1OC)C(=O)N(C1CCC(=O)NC1=O)C2 (centres unmarked) [Example 97, [2-(2,6-dioxopiperidin-3-yl)-4-methoxy-3-oxo-2,3-dihydro-1H-isoindol-5-yl]methyl N-[4-(4-fluoro-3-methylphenoxy)-2-methoxyphenyl]carbamate] | 101 | 
